# According to patent US11723894B2, “Combination product for the treatment of neurological and/or psychiatric disorders” (Consejo Superior de Investigaciones Cientificas (CSIC), priority 2017, dated 2023):
# Tests used:
# 5HT2A = 5HT2A (Homo sapiens, UniProt P28223); details: 5HT2A Antagonist; cited from earlier work
# D2 = D2 (Homo sapiens, UniProt P14416); details: D2 Antag; cited from earlier work
# [1] = test system: hippocampal subgranular neurogenic niche; experiment: Short-term (4 days) in vivo activation of the hippocampal subgranular neurogenic niche (BrdU); design: species or system C57BL/6 mice; details: antagonist 0.2 μg/animal with DMT 0.1 μg/animal
# Description: Adult male C57BL/6 mice (obtained from Charles River Labs) were injected in the lateral ventricle (coordinates: from bregma, posterior −1 mm, lateral +1.3 mm, ventral +2 mm, according to the atlas of Paxinos and Franklin (Paxinos G, Franklin KBJ. The Mouse Brain in Stereotaxic Coordinates. 4. San Diego: Academic Press; 2012)), using a stereotaxic apparatus (Kopf Instruments, CA) with DMT (0.1 μg/animal), alone or in combination with the selective Sigma-1 BD1063 (BD, 0.2 μg/animal, Sigma, catalog number SML0276), the mixed 5-HT2A/1A receptor antagonist methiothepin (Met, 0.2 μg/animal, Sigma catalog number M149), or the selective 5-HT1A receptor antagonist WAY100635 (WAY, 0.2 μg/animal, ABCAM catalog number ab120550). Prior to the injection, mice were anesthetized by intraperitoneal injection of ketamine (60 mg/kg) and medetomidine (0.125 mg/kg). […] The boundaries of these nervous system regions were determined with reference to internal anatomic landmarks (Paxinos G, Franklin KBJ. The Mouse Brain in Stereotaxic Coordinates. 4. San Diego: Academic Press; 2012). For DG area selection, images were analyzed using computer-assisted image analysis software (Soft Imaging System Corporation, Lakewood, Colo., http://www.soft-imaging.com). Positive cells, which intersected the uppermost focal plane (exclusion plane) and the lateral exclusion boundaries of the counting frames, were not counted. […]
# [2] = test system: subgranular zone of the hippocampus; experiment: Long-term (21 days) in vivo neurogenesis in the subgranular zone of the hippocampus (BrdU/NeuN, BrdU/DCX); design: species or system C57BL/6 mice; details: antagonist 0.2 μg/animal with DMT 0.1 μg/animal, every other day for 3 weeks
# Description: Adult male C57BL/6 mice (obtained from Charles River Labs, Barcelona, Spain) were injected every other day for 3 weeks with DMT (0.1 μg/animal), alone or in combination with the selective Sigma-1 BD1063 antagonist (BD, 0.2 μg/animal, Sigma, Catalog number SML0276), the mixed 5-HT2A/1A receptor antagonist methiothepin (Met, 0.2 μg/animal, Sigma, Catalog number M149), or the selective 5-HT1A receptor antagonist WAY100635 (WAY, 0.2 μg/animal, ABCAM catalog number ab120550). On day 1 of treatment, animals were intraperitoneally injected with the proliferation marker 5-bromo-2-deoxyuridine (BrdU, 50 mg/kg, Sigma, Catalog number B5002) and sacrificed on day 21. Following anesthesia, the animals were perfused transcardially with 4% paraformaldehyde, and the brains obtained and post-fixed in the same solution at 4-8° C. overnight. They were subsequently cryoprotected, frozen, and finally cut into 30 μm coronal sections in a cryostat. Free-floating sections were immunostained using immunofluorescence analysis. For BrdU detection, samples were first incubated with 2 M HCl for 30 minutes at 37° C. before blocking 1 hour in PBS containing 5% normal serum, 0.1 M lysine, and 0.1% Triton X-100. Sections were then incubated with anti-BrdU mouse monoclonal antibody (DAKO, Barcelona, Spain, Catalog number M0744) combined with a neuronal marker, anti-neuN rabbit antibody (Abcam, Cambridge, UK. Catalog number ABN78) or an anti-double courtin (DCX) goat antibody (Santa Cruz Biotech. USA) at 4° C. overnight, washed three times and incubated with Alexa Fluor-488 goat anti-mouse and Alexa 647-goat anti-rabbit or -horse anti-goat secondary antibodies (Molecular Probes, Madrid, Spain), respectively, for 1 hour at room temperature. After rinses, sections were mounted with Vectashield.
# Sequence of D2 (P14416 whole entry): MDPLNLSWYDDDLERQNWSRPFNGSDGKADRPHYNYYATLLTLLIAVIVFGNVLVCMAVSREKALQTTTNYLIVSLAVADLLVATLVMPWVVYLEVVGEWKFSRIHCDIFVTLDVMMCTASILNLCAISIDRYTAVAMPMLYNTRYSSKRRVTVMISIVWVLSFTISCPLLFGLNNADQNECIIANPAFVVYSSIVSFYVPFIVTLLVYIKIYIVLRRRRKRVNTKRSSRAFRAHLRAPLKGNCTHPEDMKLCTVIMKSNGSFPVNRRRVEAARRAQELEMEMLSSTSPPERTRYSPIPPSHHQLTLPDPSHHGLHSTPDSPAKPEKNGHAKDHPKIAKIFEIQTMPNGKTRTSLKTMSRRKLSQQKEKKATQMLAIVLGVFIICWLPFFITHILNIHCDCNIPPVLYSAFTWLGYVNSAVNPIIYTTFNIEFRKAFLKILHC
# Sequence of 5HT2A (P28223 whole entry): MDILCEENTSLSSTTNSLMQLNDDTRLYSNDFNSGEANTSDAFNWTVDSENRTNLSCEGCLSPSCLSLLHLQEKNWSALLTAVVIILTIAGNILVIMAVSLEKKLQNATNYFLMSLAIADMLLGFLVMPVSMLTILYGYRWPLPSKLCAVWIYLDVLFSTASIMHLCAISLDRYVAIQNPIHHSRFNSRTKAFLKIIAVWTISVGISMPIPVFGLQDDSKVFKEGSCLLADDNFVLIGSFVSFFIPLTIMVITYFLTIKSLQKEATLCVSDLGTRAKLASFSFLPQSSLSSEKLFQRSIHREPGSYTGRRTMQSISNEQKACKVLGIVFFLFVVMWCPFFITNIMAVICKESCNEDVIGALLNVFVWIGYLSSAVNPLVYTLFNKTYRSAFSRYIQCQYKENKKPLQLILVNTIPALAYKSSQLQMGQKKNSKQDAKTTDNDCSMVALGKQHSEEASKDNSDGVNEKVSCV
SMILES,Ki (5HT2A) [µM],Ki (D2) [µM],blockade of DMT stimulatory effects in vivo [1],blockade of the DMT neurogenic effect in vivo [2]
CCNC(=O)N1CCN(CCCC(c2ccc(F)cc2)c2ccc(F)cc2)CC1 [Amperozide],0.012,0.14,,
CN1CCN(CCc2ccc(Cl)c(Cl)c2)CC1 [BD1063],,,completely blocked,blocked
